According to patent publication US20190030018A1 (Celgene Corporation, priority 2017, published 2019):

Test system: 563 solid tumor cell lines
Test: Luminex assay in PRISM, 5 days treatment (AUC)
Type: cell-based
Set-up: AUC: scale not given here
Experimental: The AUC values provided in Table 80 below were calculated based on the Median Fluorescent Intensity values, the primary read out of the Luminex assay in PRISM. The following parameters were used in this assay: • 8 point dose was used in triplicate • max concentration of 10 μM was used with serial 4-fold dilutions (low of […]) • 563 adherent cell lines in 23 pools. • treatment duration was 5 days.

## O=C1CCC(N2Cc3cc(CNC(=O)C(F)(F)c4ccc(Cl)cc4)ccc3C2=O)C(=O)N1 (stereo not shown) [Compound 1, 2-(4-chlorophenyl)-N-((2-(2,6-dioxopiperidin-3-yl)-1-oxoisoindolin-5-yl)methyl)-2,2-difluoroacetamide]
MON_SOFT_TISSUE
  AUC: 0.789
MPP89_PLEURA
  AUC: 0.822
NB1_AUTONOMIC_GANGLIA
  AUC: 0.096
NCIH23_LUNG
  AUC: 0.951
NCIH28_PLEURA
  AUC: 0.936
NCIH226_LUNG
  AUC: 0.637
NCIH322_LUNG
  AUC: 0.714
NCIH441_LUNG
  AUC: 0.755
NCIH446_LUNG
  AUC: 0.820
NCIH460_LUNG
  AUC: 0.917
NCIH520_LUNG
  AUC: 0.562
NCIH522_LUNG
  AUC: 0.974
NCIH596_LUNG
  AUC: 0.893
NCIH647_LUNG
  AUC: 0.957
NCIH650_LUNG
  AUC: 0.854
NCIH661_LUNG
  AUC: 0.819
NCIH747_LARGE_INTESTINE
  AUC: 0.836
NCIH838_LUNG
  AUC: 0.834
NCIH841_LUNG
  AUC: 0.848
NCIH1048_LUNG
  AUC: 0.116
NCIH1299_LUNG
  AUC: 0.806
NCIH1339_LUNG
  AUC: 0.815
NCIH1355_LUNG
  AUC: 0.878
NCIH1373_LUNG
  AUC: 0.959
NCIH1435_LUNG
  AUC: 0.862
NCIH1437_LUNG
  AUC: 0.882
NCIH1563_LUNG
  AUC: 0.140
NCIH1568_LUNG
  AUC: 0.790
NCIH1573_LUNG
  AUC: 0.995
NCIH1581_LUNG
  AUC: 0.552
NCIH1623_LUNG
  AUC: 0.997
NCIH1648_LUNG
  AUC: 0.828
NCIH1650_LUNG
  AUC: 0.835
NCIH1693_LUNG
  AUC: 0.949
NCIH1703_LUNG
  AUC: 0.879
NCIH1793_LUNG
  AUC: 0.290
NCIH1915_LUNG
  AUC: 0.876
NCIH1944_LUNG
  AUC: 0.911
NCIH1975_LUNG
  AUC: 0.866
NCIH2009_LUNG
  AUC: 0.760
NCIH2030_LUNG
  AUC: 0.839
NCIH2073_LUNG
  AUC: 0.878
NCIH2077_LUNG
  AUC: 0.855
NCIH2087_LUNG
  AUC: 0.866
NCIH2110_LUNG
  AUC: 0.837
NCIH2126_LUNG
  AUC: 0.820
NCIH2170_LUNG
  AUC: 0.887
NCIH2172_LUNG
  AUC: 0.794
NCIH2196_LUNG
  AUC: 0.870
NCIH2228_LUNG
  AUC: 0.851
NCIH2347_LUNG
  AUC: 0.324
NCIH2444_LUNG
  AUC: 0.620
NCIH2452_PLEURA
  AUC: 0.843
NCIN87_STOMACH
  AUC: 0.881
NUGC3_STOMACH
  AUC: 0.261
NUGC4_STOMACH
  AUC: 0.839
OAW28_OVARY
  AUC: 0.814
OC314_OVARY
  AUC: 0.915
OC316_OVARY
  AUC: 0.872
OE19_OESOPHAGUS
  AUC: 0.808
OE21_OESOPHAGUS
  AUC: 0.893
OE33_OESOPHAGUS
  AUC: 0.847
ONS76_CENTRAL_NERVOUS_SYSTEM
  AUC: 0.811
OSRC2_KIDNEY
  AUC: 0.842
OV7_OVARY
  AUC: 0.597
OV56_OVARY
  AUC: 0.874
OV90_OVARY
  AUC: 0.939
OVCAR8_OVARY
  AUC: 0.844
OVISE_OVARY
  AUC: 0.630
OVKATE_OVARY
  AUC: 0.851
OVSAHO_OVARY
  AUC: 0.617
OVTOKO_OVARY
  AUC: 0.907
PANC1_PANCREAS
  AUC: 0.781
PANC0203_PANCREAS
  AUC: 0.927
PANC0327_PANCREAS
  AUC: 0.813
PANC0403_PANCREAS
  AUC: 0.877
PANC0504_PANCREAS
  AUC: 0.245
PANC1005_PANCREAS
  AUC: 0.540
PATU8902_PANCREAS
  AUC: 0.145
PATU8988T_PANCREAS
  AUC: 0.075
PC3_PROSTATE
  AUC: 0.735
PC14_LUNG
  AUC: 0.500
PECAPJ15_UPPER_AERODIGESTIVE_TRACT
  AUC: 0.877
PECAPJ41CLONED2_UPPER_AERODIGESTIVE_TRACT
  AUC: 0.719
PECAPJ49_UPPER_AERODIGESTIVE_TRACT
  AUC: 0.843
PEDS005TADH_KIDNEY
  AUC: 0.448
PEDS015T_SOFT_TISSUE
  AUC: 0.814
PK1_PANCREAS
  AUC: 0.859
PK45H_PANCREAS
  AUC: 0.843
PK59_PANCREAS
  AUC: 0.778
PLCPRF5_LIVER
  AUC: 0.833
PSN1_PANCREAS
  AUC: 0.820
QGP1_PANCREAS
  AUC: 0.976
RCC10RGB_KIDNEY
  AUC: 0.801
RDES_BONE
  AUC: 0.571
RD_SOFT_TISSUE
  AUC: 0.769
RERFLCAD1_LUNG
  AUC: 0.782
RERFLCAD2_LUNG
  AUC: 0.874
RERFLCAI_LUNG
  AUC: 0.859
RERFLCKJ_LUNG
  AUC: 0.824
RKN_SOFT_TISSUE
  AUC: 0.988
RKO_LARGE_INTESTINE
  AUC: 0.847
RL952_ENDOMETRIUM
  AUC: 0.403
RMUGS_OVARY
  AUC: 0.857
RPMI7951_SKIN
  AUC: 0.786
RT112_URINARY_TRACT
  AUC: 0.766
RVH421_SKIN
  AUC: 0.839
S117_SOFT_TISSUE
  AUC: 0.866
SBC5_LUNG
  AUC: 0.948
SCC25_UPPER_AERODIGESTIVE_TRACT
  AUC: 0.782
SF126_CENTRAL_NERVOUS_SYSTEM
  AUC: 0.862
SF295_CENTRAL_NERVOUS_SYSTEM
  AUC: 0.917
SF539_CENTRAL_NERVOUS_SYSTEM
  AUC: 0.888
SH4_SKIN
  AUC: 0.537
SH10TC_STOMACH
  AUC: 0.886
